Test results taken from patent publication US6461997B1, “Triazole sulfones having herbicidal activity” (Monsanto Technology LLC, priority 1999, dated 2002).

Assays:
[1] = system: POLCO (wild buckwheat); test: Pre-emergence herbicidal activity, cool season; format: in vivo, Polygonum convolvulus; conditions: lowest tested rate with 80% or greater inhibition; rates 300, 100, 30, 10 g/ha; about 14 days
In short: (§1)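 GR80 values derive from percent inhibition relative to untreated plants, read roughly 14 days after sowing and pre-emergence soil-surface treatment (compound in 50:50 acetone/water; rates typically 10, 30, 100, 300 g/ha). Warm-season weeds grew at 30/21° C day/night, cool-season ones at 18/13° C; an asterisk marks activity without reaching 80% at the highest rate.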

[2] = system: STEME (common chickweed); test: Pre-emergence herbicidal activity, cool season; format: in vivo, Stellaria media; conditions: lowest tested rate with 80% or greater inhibition; rates 300, 100, 30, 10 g/ha; about 14 days
In short: as §1

[3] = system: AGSST (creeping bentgrass); test: Pre-emergence herbicidal activity, cool season; format: in vivo, Agrostis stolonifera; conditions: GR80 = lowest tested rate (300, 100, 30, 10 g/ha) with 80% or greater inhibition; approx. 14 days after treating; 18/13° C.
In short: as §1

[4] = system: BRAPP (broadleaf signalgrass); test: Pre-plant incorporated (PPI) herbicidal activity, warm season; format: in vivo, Brachiaria platyphylla; conditions: for inhibition at 10 g/ha / inhibition at 30 g/ha / inhibition at 100 g/ha / inhibition at 300 g/ha / inhibition at 900 g/ha: Urochloa platyphylla, PPI application, read-out: Percent inhibition BRAPP; for PPI activity GR80, BRAPP: pre-plant incorporated, lowest tested rate with 80% or greater inhibition, about 14 days
Method: (§2) In another set of tests, the pre-plant incorporated (PPI) activity of compounds of this invention was evaluated on the same species as for the pre-emergence tests described above. In the PPI tests the following procedure, designed to simulate PPI application, was used.
(§3) A pre-prepared topsoil mixture (described above) was placed in a pot and compacted to a depth of 1.0 to 1.25 cm from the top of the pot. Seeds of each of several monocotyledonous and dicotyledonous annual plant species were placed on top of the soil. A sufficient quantity of soil to cover the seeds and level fill the pot was weighed into an open container. A known amount of the test compound was dissolved or suspended in an organic solvent and applied by spraying to this cover soil. The cover soil was thoroughly mixed to distribute the test compound throughout the cover soil, and was then applied as a cover layer over the seeds. Untreated soil was used as a cover layer for control pots. After treatment the plants were placed in a greenhouse where they received 0.64 cm of overhead irrigation. All subsequent watering consisted of a light overhead mist and/or subirrigation as needed for germination and growth. Tables 9 and 10 below relate to warm season plant species which were placed after pre-emergence treatment in a greenhouse with a 30/21° C. day/night temperature regime. Tables 11 and 12 below relates to cool season plant species placed after pre-emergence treatment in a greenhouse or growth chamber with an 18/13° C. day/night temperature regime. Only the compounds of Examples 1, 6, 8, 11, 13 and 15-20 were included in PPI tests.
(§4) Approximately 14 days after planting and treating, the plants were observed and herbicidal efficacy recorded as percent inhibition by comparison with untreated plants.

[5] = system: SINAR (wild mustard); test: Pre-plant incorporated (PPI) herbicidal activity, cool season; format: in vivo, Sinapis arvensis; conditions: for PPI activity GR80, SINAR: pre-plant incorporated, lowest tested rate with 80% or greater inhibition, about 14 days
Method: as §2, §3, §4

[6] = system: ALOMY (blackgrass); test: as above; format: in vivo, Alopecurus myosuroides; conditions: for inhibition at 10 g/ha / inhibition at 30 g/ha / inhibition at 100 g/ha / inhibition at 300 g/ha / inhibition at 900 g/ha: Alopecurus myosuroides, weed, PPI application, read-out: Percent inhibition ALOMY; for PPI activity GR80, ALOMY: pre-plant incorporated, lowest tested rate with 80% or greater inhibition, about 14 days
Method: as §2, §3, §4

[7] = system: BROTE (downy brome); test: as above; format: in vivo, Bromus tectorum; conditions: for inhibition at 10 g/ha / inhibition at 30 g/ha / inhibition at 100 g/ha / inhibition at 300 g/ha / inhibition at 900 g/ha: Bromus tectorum, weed, PPI application, read-out: Percent inhibition BROTE; for PPI activity GR80, BROTE: pre-plant incorporated, lowest tested rate with 80% or greater inhibition, about 14 days
Method: as §2, §3, §4

[8] = system: AVEFA (wild oat); test: as above; format: in vivo, Avena fatua; conditions: for inhibition at 10 g/ha / inhibition at 30 g/ha / inhibition at 100 g/ha / inhibition at 300 g/ha / inhibition at 900 g/ha: Avena fatua, weed, PPI application, read-out: Percent inhibition AVEFA; for PPI activity GR80, AVEFA: pre-plant incorporated, lowest tested rate with 80% or greater inhibition, about 14 days
Method: as §2, §3, §4

[9] = system: corn (ZEAMX); test: Selectivity test, PPI, warm season crop; format: in vivo, Zea mays; conditions: Zea mays, PPI application, read-out: Percent inhibition ZEAMX
Method: as §3, §4
Additional pre-emergence and PPI tests were conducted by the procedures described above, on warm and cool season weed species in the presence of crop species, to assess herbicidal selectivity. Crop species included in warm season tests were corn (Zea mays, ZEAMX), rice (Oryza sativa, ORYSA) and soybean (Glycine max, GLYMX). Crop species included in cool season tests were wheat (Triticum aestivum, TRZAW), barley (Hordeunm vulgare, HORVX) and oilseed rape (Brassica napus, BRSNS).
Tables 15 and 16 relate to pre-emergence and PPI tests respectively on warm season species. Table 17 relates to pre-emergence tests on cool season species.

[10] = Brassica, weed, PPI application, read-out: Percent inhibition SINAR

Compound | Pre-emergence activity GR80, POLCO [1] | Pre-emergence activity GR80, STEME [2] [g/ha] | Pre-emergence activity (GR80) AGSST [3] [g/ha] | inhibition at 10 g/ha [4] [%] | inhibition at 30 g/ha [4] [%] | inhibition at 100 g/ha [4] [%] | inhibition at 300 g/ha [4] [%] | inhibition at 900 g/ha [4] [%] | PPI activity GR80, BRAPP [4] [g/ha] | inhibition at 10 g/ha [5, 10] [%] | inhibition at 100 g/ha [5, 10] [%] | inhibition at 300 g/ha [5, 10] [%] | inhibition at 900 g/ha [5, 10] [%] | PPI activity GR80, SINAR [5] [g/ha] | inhibition at 10 g/ha [6] [%] | inhibition at 30 g/ha [6] [%] | inhibition at 100 g/ha [6] [%] | inhibition at 300 g/ha [6] [%] | inhibition at 900 g/ha [6] [%] | PPI activity GR80, ALOMY [6] [g/ha] | other results
C=C(Br)CC(F)(F)S(=O)(=O)c1ncn(C(=O)N(CC)CC)n1 [Example 19] | [empty] | 10 | 30 | 0 | 0 | 30 | 100 | 100 | 300 | 100 | 100 | 100 | 100 | 300 | 60 | 50 | 70 | 100 | 100 | 30 | inhibition at 10 g/ha [7]: 0%; inhibition at 30 g/ha [7]: 20%; inhibition at 100 g/ha [7]: 20%; inhibition at 300 g/ha [7]: 60%; inhibition at 900 g/ha [7]: 95%; PPI activity GR80, BROTE [7]: 300 g/ha; inhibition at 10 g/ha [8]: 0%; inhibition at 30 g/ha [8]: 0%; inhibition at 100 g/ha [8]: 30%; inhibition at 300 g/ha [8]: 70%; inhibition at 900 g/ha [8]: 60%; PPI activity GR80, AVEFA [8]: 300 g/ha; inhibition at 10 g/ha [9]: 0%; inhibition at 30 g/ha [9]: 0%; inhibition at 100 g/ha [9]: 10%; inhibition at 300 g/ha [9]: 10%; inhibition at 900 g/ha [9]: 35%
C=C(C)CC(F)(F)S(=O)(=O)c1ncn(C(=O)N(CC)CC)n1 [Example 18] | 300 g/ha | 30 | 30 | 0 | 0 | 0 | 100 | 100 | 100 | 100 | 80 | 100 | 100 | 10 | 60 | 60 | 30 | 80 | 80 | 100 | inhibition at 30 g/ha ([5]; Brassica, weed, PPI application, 30 g/ha, read-out: Percent inhibition SINAR): 100%; inhibition at 10 g/ha [7]: 0%; inhibition at 30 g/ha [7]: 0%; inhibition at 100 g/ha [7]: 0%; inhibition at 300 g/ha [7]: 20%; inhibition at 900 g/ha [7]: 90%; PPI activity GR80, BROTE [7]: 300 g/ha; inhibition at 10 g/ha [8]: 0%; inhibition at 30 g/ha [8]: 0%; inhibition at 100 g/ha [8]: 10%; inhibition at 300 g/ha [8]: 50%; inhibition at 900 g/ha [8]: 99%; PPI activity GR80, AVEFA [8]: 300 g/ha; inhibition at 10 g/ha [9]: 0%; inhibition at 30 g/ha [9]: 0%; inhibition at 100 g/ha [9]: 10%; inhibition at 300 g/ha [9]: 15%; inhibition at 900 g/ha [9]: 20%
